Measured values: patent US4602025A, “Aromatase inhibitors” (Eli Lilly and Company, priority 1984, dated 1986)
pEC50: −log10 of the molar value.

Columns and labels:
aromatase = molecular target: T1, aromatase (Rattus norvegicus, UniProt P22443); test: biochemical; conditions: rat ovarian microsomes; substrate (androstenedione) concentration 0.1 μM; inhibitors tested between 0.005 and 10 μM
T1 sequence (P22443 1-508): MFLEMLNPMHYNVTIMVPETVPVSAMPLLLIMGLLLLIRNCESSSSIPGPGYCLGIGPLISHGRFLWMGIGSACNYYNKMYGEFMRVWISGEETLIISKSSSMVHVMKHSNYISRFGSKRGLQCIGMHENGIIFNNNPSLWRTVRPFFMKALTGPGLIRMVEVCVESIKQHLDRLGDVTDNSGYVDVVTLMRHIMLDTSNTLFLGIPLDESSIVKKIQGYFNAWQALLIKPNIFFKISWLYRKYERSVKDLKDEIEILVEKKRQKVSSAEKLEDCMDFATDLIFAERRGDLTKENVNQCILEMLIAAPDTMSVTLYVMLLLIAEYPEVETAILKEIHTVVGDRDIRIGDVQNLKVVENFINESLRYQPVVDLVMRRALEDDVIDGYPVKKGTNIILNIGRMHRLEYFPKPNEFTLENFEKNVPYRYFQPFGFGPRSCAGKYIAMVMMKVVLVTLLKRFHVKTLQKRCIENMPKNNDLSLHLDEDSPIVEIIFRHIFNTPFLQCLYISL
Description: In this test system, ovarian microsomes are obtained from rats treated with pregnant mares serum gonadotropin. Test compounds are added to reaction vials containing 0.1 μM 4-androstene-3,17-dione, 100,000 dpm 1,2[^3 H]-androstenedione, the microsomes and a NADPH generating system.

breast cancer = conditions: known aromatase inhibitors; Cancer Research, Vol. 42, Suppl. 8:3261s (1982); cited from earlier work

SMILES	pEC50 (aromatase)	effect in treatment of breast cancer (breast cancer)
c1ccc(C(c2ccccc2)(c2ccns2)n2cncn2)cc1 [Example 2, 5-(Diphenyl-1H-1,2,4-triazol-1-ylmethyl)-isothiazole]	6.59	–
Clc1ccc(C(c2ccc(Cl)cc2)(c2ccns2)n2cncn2)cc1 [Example 7, 1-[Bis(4-chlorophenyl)-5-isothiazolemethyl]-1H-1,2,4-triazole]	7.29	–
CCC1(c2ccc(N)cc2)CCC(=O)NC1=O (stereo not shown) [aminoglutethimide]	–	beneficial effect
C[C@]12C=CC(=O)C=C1CC[C@@H]1[C@@H]2CC[C@]2(C)OC(=O)CC[C@@H]12 [testolactone]	–	beneficial effect
